Source: patent US8445444B2, “Compositions and methods for diagnosing, treating, and preventing prostate conditions” (Phigenix, Inc., priority 2007, dated 2013)
Entries after “also recorded” stand apart in the source; their conditions may differ.

Key:
Format in all cases: cell-based, human
[1] = tested on: PC3; assay: Phase contrast microscopy of cell growth; conditions: PC3, 48 h DEFB1 induction
Protocol: (§1) Microscopic Analysis: Cell morphology was analyzed by phase contrast microscopy. DU145, PC3 and LNCaP cells containing no vector, empty plasmid or DEFB1 plasmid were seeded onto 6 well culture plates (BD Falcon, USA). The following day plasmid-containing cells were induced for a period of 48 h with media containing 10 μM Ponasterone A, while control cells received fresh media. The cells were then viewed under an inverted Zeiss IM 35 microscope (Carl Zeiss, Germany). Phase contrast pictures of a field of cells were obtained using the SPOT Insight Mosaic 4.2 camera (Diagnostic Instruments, USA). Cells were examined by phase contrast microscopy under 32× magnification and digital images were stored as uncompressed TIFF files and exported into Photoshop CS software (Adobe Systems, San Jose, Calif.) for image processing and hard copy presentation.
(§2) Phase Contrast Microscopy: The effect of PAX2 knock-down on cell growth was analyzed by phase contrast microscopy. Here, 1-2×10^4 cells were seeded onto 6 well culture plates (BD Falcon, USA). The following day cells were treated with media only, negative control non-specific siRNA or PAX2 siRNA and allowed to incubate for six days. The cells were then viewed under an inverted Zeiss IM 35 microscope (Carl Zeiss, Germany) at 32× magnification. Phase contrast pictures of a field of cells were obtained using the SPOT Insight Mosaic 4.2 camera (Diagnostic Instruments, USA).
(§3) Phase contrast microscopy: The effect of PAX2 knockdown on cell number was analyzed by phase contrast microscopy. Here, 1-2×10^4 cells were seeded overnight onto six-well culture plates (BD Falcon, USA). Next the cells were treated with media only, negative control non-specific siRNA or PAX2 siRNA and allowed to incubate for 6 days. The cells were then viewed under an inverted Zeiss IM 35 microscope (Carl Zeiss, Germany). Phase contrast pictures of a field of cells were obtained using the SPOT Insight Mosaic 4.2 camera (Diagnostic Instruments, USA).

[2] = tested on: LNCaP; assay: Phase contrast microscopy of cell growth; conditions: 48 h DEFB1 induction
Protocol: as §1, §2, §3

[3] = tested on: DU145; assay: Phase contrast microscopy of cell growth; conditions: DU145, 48 h DEFB1 induction
Protocol: as §1, §2, §3

[4] = tested on: DU145; assay: Pan-caspase detection (FAM-VAD-FMK, confocal); conditions: DU145, 24 h DEFB1 (hBD-1) induction
Protocol: Detection of caspase activity in the prostate cancer cell lines was performed using APO LOGIX™ Carboxyfluorescin Caspase detection kit (Cell Technology, Mountain View, Calif.). Active caspases were detected through the use of a FAM-VAD-FMK inhibitor that irreversibly binds to active caspases. Briefly, DU 145 and PC3 cells (1.5-3×10^5) containing the DEFB1 expression system were plated in 35 mm glass bottom microwell dishes (Matek, Ashland, Mass.) and treated for 24 hours with media only or with media containing PonA as previously described. Next, 10 μl of a 30× working dilution of carboxyfluorescein labeled peptide fluoromethyl ketone (FAM-VAD-FMK) was added to 300 μl of media and added to each 35 mm dish. Cells were then incubated for 1 hour at 37° C. under 5% CO2. […] The fluorescent signal was analyzed using a confocal microscope (Zeiss LSM 5 Pascal) and a 63×DIC oil lens with a Vario 2 RGB Laser Scanning Module.
Pan-Caspase Detection: Detection of caspase activity in the prostate cancer cell lines was performed using APO LOGIX™ Carboxyfluorescin Caspase detection kit (Cell Technology, Mountain View, Calif.). Active caspases were detected through the use of a FAM-VAD-FMK inhibitor that irreversibly binds to active caspases. […] The fluorescent signal was analyzed using a confocal microscope (Zeiss LSM 5 Pascal) and a 63×DIC oil lens with a Vario 2 RGB Laser Scanning Module. […]

[5] = tested on: LNCaP; assay: Pan-caspase detection (FAM-VAD-FMK, confocal); conditions: 24 h DEFB1 (hBD-1) induction

“DEFB1: human beta defensin-1 expressed from the ecdysone inducible pIND/DEFB1 construct, induced with Ponasterone A (DHYNCVSSGGQCLYSACPIFTKIQGTCYRGKAKCCK; UniProt P60022 33-68, looked up)” was tested, and the cell number [1] was “significant reduction in cell number”, the cell proliferation [2] was “no effect on cell proliferation” and the cell number [3] was “significant reduction in cell number”. For the same substance, the caspase activity [4] was “revealed caspase activity; also recorded: green staining”, the caspase activity ([4]; listed as hBD-1) was “green staining” and the caspase activity [5] was “No caspase activity was detected; also recorded: no green staining”. For the same substance, the caspase activity ([5]; listed as hBD-1) was “no green staining”.
